# Measurements reported in ChEMBL document CHEMBL4118111, “Discovery and optimization of piperazine-1-thiourea-based human phosphoglycerate dehydrogenase inhibitors” (Bioorg Med Chem, 2018).
# Legend:
# [1] = target: T1, D-3-phosphoglycerate dehydrogenase (Homo sapiens) (UniProt O43175); test: Inhibition of N-terminal His6-tagged human liver PHGDH expressed in Escherichia coli Rosetta (DE3)pLysS at 57 uM using 3-phosphoglycerate as substrate after 20 mins in presence of NAD+ by resazurin fluorescence based PSAT1/diaphorase/PSPH coupled enzyme assay
# T1 sequence (whole entry): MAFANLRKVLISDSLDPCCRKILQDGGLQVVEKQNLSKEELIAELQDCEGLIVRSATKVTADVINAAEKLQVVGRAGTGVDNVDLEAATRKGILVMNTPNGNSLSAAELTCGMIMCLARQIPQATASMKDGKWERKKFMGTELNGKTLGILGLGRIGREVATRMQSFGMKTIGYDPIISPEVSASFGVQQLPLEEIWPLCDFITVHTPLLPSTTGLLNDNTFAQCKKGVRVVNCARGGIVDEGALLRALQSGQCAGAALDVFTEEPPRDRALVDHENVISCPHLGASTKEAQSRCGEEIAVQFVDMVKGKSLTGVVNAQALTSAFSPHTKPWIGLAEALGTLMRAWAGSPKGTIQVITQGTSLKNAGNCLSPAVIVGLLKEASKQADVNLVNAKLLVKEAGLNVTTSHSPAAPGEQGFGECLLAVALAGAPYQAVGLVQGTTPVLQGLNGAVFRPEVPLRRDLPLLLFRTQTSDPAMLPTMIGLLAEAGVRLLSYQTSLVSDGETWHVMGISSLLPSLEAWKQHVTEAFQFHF
# [2] = target: T2, D-3-phosphoglycerate dehydrogenase (Homo sapiens, UniProt O43175)
# T2 sequence (O43175 whole entry): T1 sequence (whole entry)
# [3] = target: T2, D-3-phosphoglycerate dehydrogenase; test: Inhibition of PHGDH (unknown origin)
Compound,inhibition [1] [%],IC50 [2] [µM],Imax [1] [%],IC50 [3] [µM]
Cc1cc(C)nc(NC(=S)N2CCN(Cc3ccccc3C(F)(F)F)CC2)c1,92,6.3,,
Cc1cc(C)nc(NC(=S)N2CC3CN(Cc4ccc(C(F)(F)F)cc4)CC3C2)c1 (stereo not drawn),93,16,,
Cc1cc(C)nc(NC(=S)N2C[C@@H](C)N(Cc3ccc(C(F)(F)F)cc3)[C@@H](C)C2)c1,,,16,
Cc1cc(C)nc(NC(=S)N2CCCC(NCc3ccc(C(F)(F)F)cc3)C2)c1 (stereo not drawn),89,12,,
Cc1cc(C)nc(NC(=S)N2CCC(Nc3cccc(C(F)(F)F)c3)CC2)c1,90,6.5,,
Cc1cc(C)nc(NC(=S)NCCNCc2ccc(C(F)(F)F)cc2)c1,41,9.7,,
Cc1cc(C)nc(NC(=S)N2CCN(c3ccccc3C(F)(F)F)CC2)c1,101,8.7,,
Cc1cc(C)nc(NC(=S)N2CCN(Cc3ccc(Cl)cc3)CC2)c1,97,15,,
FC(F)(F)c1cccc(N2CCN(C(=S)Nc3cccnc3)CC2)c1,67,8.9,,
Cc1cc(C)nc(NC(=S)N2CCN(c3ccccn3)CC2)c1,73,37,,
Cc1cc(C)nc(NC(=S)N2CCN(Cc3cccc(Cl)c3)CC2)c1,90,11,,
Cc1ccnc(CC(=S)N2CCN(c3cccc(C(F)(F)F)c3)CC2)c1,,,37,
Cc1cc(C)nc(NC(=S)N2CCN(Cc3cccnc3)CC2)c1,,,34,
Cc1cc(C)nc(NC(=S)N2CCN(Cc3ccc(C(F)(F)F)cc3)C(C)C2)c1 (stereo not drawn),99,8.3,,
Cc1cc(C)nc(NC(=S)N2CCN(Cc3ccccc3F)CC2)c1,56,41,,
Cc1cc(C)nc(NC(=S)N2CCC(NC(=O)c3ccc(C(F)(F)F)cc3)CC2)c1,90,10,,
COC(=O)c1ccnc(NC(=S)N2CCN(c3cccc(C(F)(F)F)c3)CC2)c1,73,13,,
Cc1cc(C)nc(NC(=S)N2CCC(NC(=O)c3cccc(C(F)(F)F)c3)CC2)c1,94,11,,
Cc1cc(C)nc(NC(=S)N2CCN(Cc3ccc(C(F)(F)F)cc3)[C@@H](C)C2)c1,86,9.9,,

Compound,inhibition [1] [%],IC50 [2] [µM],Imax [1] [%],IC50 [3] [µM]
Cc1cc(C)nc(NC(=S)N2CCN(Cc3ccc(C(F)(F)F)cc3)C(CO)C2)c1 (stereo not drawn),89,5.8,,
Cc1cc(C)nc(NC(=S)N2CCN(Cc3cccc(F)c3)CC2)c1,88,39,,
Cc1cc(C)nc(NC(=S)N2CCN(c3ccc(C(F)(F)F)cc3)CC2)c1,98,4.3,,
Cc1cc(C)nc(NC(=S)N2CCN(c3cccnc3)CC2)c1,68,50,,
FC(F)(F)c1cccc(N2CCN(C(=S)Nc3ccc4ccccc4n3)CC2)c1,90,10,,
Cc1cc(C)nc(NC(=S)N2CCN(Cc3cccc(C(F)(F)F)c3)CC2)c1,102,5.3,,
Cc1ccc(CN2CCN(C(=S)Nc3cc(C)cc(C)n3)CC2)cc1,93,17,,
CCNC(=S)N/N=C/c1ccc(-c2ccc(C(=O)O)c(Cl)c2)o1,,,,35.7
Cc1cc(C)nc(NC(=S)N2CCN(Cc3ccccc3C)CC2)c1,85,9.2,,
Cc1cc(C)nc(NC(=S)N2CCN(Cc3ccc(OC(F)(F)F)cc3)CC2)c1,96,11,,
Cc1ccnc(N(C)C(=S)N2CCN(c3cccc(C(F)(F)F)c3)CC2)c1,,,38,
Cc1cc(C)nc(NC(=S)N2CCN(c3cccc(C(F)(F)F)n3)CC2)c1,100,11,,
Cc1cc(C)nc(NC(=S)N2CCN(C(=O)c3ccc(C(F)(F)F)cc3)CC2)c1,85,19,,
COc1ccccc1CN1CCN(C(=S)Nc2cc(C)cc(C)n2)CC1,,,21,
Cc1cc(NC(=S)N2CCN(c3cccc(C(F)(F)F)c3)CC2)nc2ccccc12,119,21,,
Cc1cc(C)nc(NC(=S)N2CCC(NCc3ccc(C(F)(F)F)cc3)CC2)c1,93,15,,
Cc1cc(C)nc(NC(=S)N2CCN(CCc3ccc(C(F)(F)F)cc3)CC2)c1,87,23,,
Cc1cc(C)nc(NC(=S)N2CCCC(Nc3cccc(C(F)(F)F)c3)C2)c1 (stereo not drawn),84,7.2,,
